The record followed here is publication PMC10186366 (ACS Pharmacology & Translational Science, 2023).

The test addresses T1, human ATIC (AICARFTase) (Homo sapiens, UniProt P31939).
T1 construct: full-length human ATIC; made in house; host or cells: E. coli Rosetta (DE3)pLysS
Nature of the test: In vitro AICARFTase (ATIC) enzyme assay (THF formation from 10-CHOTHF). The class given is biochemical. The note with it: monoglutamyl antifolates; mean (standard error), at least three replicate assays; tested up to 200 μM. On the procedure: We directly tested inhibition potencies by in vitro assays using purified GARFTase and ATIC (AICARFTase) to calculate inhibition dissociation constants (Ki’s) (Table 2).[45]
N-terminal hexahistidine-tagged GARFTase (formyltransferase domain; residues 808–1010) and full-length human ATIC were expressed in Rosetta (DE3)pLysS cells.[45],[48] Cultures (1 L) were grown at 37 °C in LB media with 100 μg/mL ampicillin and 34 μg/mL chloramphenicol until OD600 reached 0.6. Isopropyl β-D-1-thiogalactopyranoside (500 μM) was added, and the cells were incubated at 20 °C for 16–18 h. The cultures were pelleted and resuspended in 40 mL of 25 mM Tris–HCl, pH 7.5, 300 mM NaCl, 5 mM β-mercaptoethanol (β-ME), 10 mM CaCl2, 10 mM MgCl2, 40 mg lysozyme, and 8 U DNAse I (Sigma). The cells were lysed by emulsification.
His-ATIC was purified from the lysate by immobilized metal affinity chromatography with a 4 mL Ni-NTA column (Gold Biotechnology).[45] The column was washed with 5 CV of 25 mM Tris–HCl, pH 7.5, 300 mM NaCl, 10 mM imidazole, and 5 mM β-ME (wash buffer) followed by 5 CV of the wash buffer containing 25 mM imidazole. The protein was eluted with 5 CV of the elution buffer containing components of the wash buffer with 300 mM imidazole. Further purification was by ÄKTA FPLC (GE Healthcare) with a Superdex 200 16/60 (GE Healthcare) column equilibrated with 20 mM Tris–HCl, pH 7.5, 150 mM NaCl, 50 mM KCl, 5 mM EDTA, and 5 mM dithiothreitol (DTT). His-ATIC was stored at 150 μM at 4 °C in this buffer (up to 6 months) or at 100 μM with 20% glycerol at −80 °C for longer-term storage.
GARFTase catalytic activity was measured by monitoring THF formation from 10-CHOTHF.[32],[45],[48] GARFTase assays included 40 μM 10-CHO-THF, 50 nM His-GARFTase, 15 μM α,β-GAR, and a range of inhibitor concentrations in 25 mM Tris–HCl, pH 8.0, 300 mM NaCl, and 5 mM β-ME at 37 °C.[45] AICARFTase catalytic activity was measured by monitoring THF formation from 10-CHOTHF.[54] Reactions included 50 μM 10-CHOTHF, 100 nM His-ATIC, 50 μM ZMP, and inhibitors in 32.6 mM Tris–HCl, pH 7.5, 25 mM KCl, and 5 mM β-ME at 25 ° C.[45] Kinetic measurements were recorded in triplicate in a UV-transparent 96-well plate (Costar 3635) at 298 nm using a BioTek Synergy Neo2 Plate Reader. Initial slopes were graphed against inhibitor concentrations and fit to a three-parameter nonlinear regression to calculate IC50 values for each compound (GraphPad Prism 8.0). […] SHMT2 activity was assayed by monitoring NADH production with a coupled assay including 500 nM His-SHMT2 and 10 μM His-MTHFD2 ([…] molar ratio His-SHMT2/His-MTHFD2). NADH production by His-MTHFD2 was monitored by fluorescence at 470 nm with excitation at 360 nm (Synergy Neo2 Biotek plate reader). Inhibition constants (Ki’s) were calculated from the IC50 values using the equation Ki = IC50/([S]/KM + 1) and the Km and substrate concentration for THF. The THF concentration in the reaction was […]. The calculated Km value for THF with His-SHMT2 was 62.8 μM.

Bounds are passed on as bounds.

Broadly, the Ki is the dissociation constant of the complex between target and ligand, obtained from inhibition or displacement.

T1 sequence (P31939 whole entry): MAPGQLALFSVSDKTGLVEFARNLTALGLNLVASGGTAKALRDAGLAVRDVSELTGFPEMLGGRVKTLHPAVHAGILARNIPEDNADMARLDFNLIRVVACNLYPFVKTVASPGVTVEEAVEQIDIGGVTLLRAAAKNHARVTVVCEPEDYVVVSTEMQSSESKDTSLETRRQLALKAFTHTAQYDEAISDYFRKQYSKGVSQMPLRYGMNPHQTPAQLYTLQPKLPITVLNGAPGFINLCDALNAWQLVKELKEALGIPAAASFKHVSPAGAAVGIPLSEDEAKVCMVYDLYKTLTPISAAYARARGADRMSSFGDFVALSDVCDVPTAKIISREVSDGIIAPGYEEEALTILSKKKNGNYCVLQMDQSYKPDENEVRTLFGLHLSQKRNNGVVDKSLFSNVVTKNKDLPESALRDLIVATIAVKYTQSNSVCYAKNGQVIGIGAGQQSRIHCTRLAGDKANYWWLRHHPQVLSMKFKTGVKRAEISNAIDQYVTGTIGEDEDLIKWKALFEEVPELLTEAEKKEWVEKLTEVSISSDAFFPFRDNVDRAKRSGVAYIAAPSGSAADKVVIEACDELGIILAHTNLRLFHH

`Nc1nc2sc(CCCc3csc(C(=O)N[C@@H](CCC(=O)O)C(=O)O)c3F)cc2c(=O)[nH]1` [Compound 8, (4-(3-(2-Amino-4-oxo-3,4-dihydrothieno[2,3-d]pyrimidin-6-yl)propyl)-3-fluorothiophene-2-carbonyl)-L-glutamic Acid]: the Ki was 14.5 µM.

As for `Nc1nc2sc(CCCCc3ccc(C(=O)N[C@@H](CCC(=O)O)C(=O)O)nc3)cc2c(=O)[nH]1` [Compound 4, (5-(4-(2-Amino-4-oxo-3,4-dihydrothieno[2,3-d]pyrimidin-6-yl)butyl)picolinoyl)-L-glutamic Acid], the Ki was 12.1 µM. The same measure for `Nc1nc2sc(CCCc3ccc(C(=O)N[C@@H](CCC(=O)O)C(=O)O)cc3)cc2c(=O)[nH]1` [Compound 1]: > 200 µM; for `Nc1nc2sc(CCCc3ccc(C(=O)N[C@@H](CCC(=O)O)C(=O)O)c(F)c3)cc2c(=O)[nH]1` [Compound 6, (4-(3-(2-Amino-4-oxo-3,4-dihydrothieno[2,3-d]pyrimidin-6-yl)propyl)-2-fluorobenzoyl)-L-glutamic Acid]: 7.3 µM. For `Nc1nc2sc(CCCCc3cccc(C(=O)N[C@@H](CCC(=O)O)C(=O)O)n3)cc2c(=O)[nH]1` [Compound 3, (6-(4-(2-Amino-4-oxo-3,4-dihydrothieno[2,3-d]pyrimidin-6-yl)butyl)picolinoyl)-L-glutamic Acid] the value was 18.4 µM.

On to `Nc1nc2sc(CCCCc3cnc(C(=O)N[C@@H](CCC(=O)O)C(=O)O)c(F)c3)cc2c(=O)[nH]1` [Compound 5, (5-(4-(2-Amino-4-oxo-3,4-dihydrothieno[2,3-d]pyrimidin-6-yl)butyl)-3-fluoropicolinoyl)-L-glutamic Acid], for which the Ki is > 200 µM.

As to `Nc1nc2sc(CCCCc3ccc(C(=O)N[C@@H](CCC(=O)O)C(=O)O)c(F)c3)cc2c(=O)[nH]1` [Compound 7, (4-(4-(2-Amino-4-oxo-3,4-dihydrothieno[2,3-d]pyrimidin-6-yl)butyl)-2-fluorobenzoyl)-L-glutamic Acid], the Ki was found to be 19.4 µM. The same measure for `Nc1nc2sc(CCCCc3csc(C(=O)N[C@@H](CCC(=O)O)C(=O)O)c3F)cc2c(=O)[nH]1` [Compound 9, (4-(4-(2-Amino-4-oxo-3,4-dihydrothieno[2,3-d]pyrimidin-6-yl)butyl)-3-fluorothiophene-2-carbonyl)-L-glutamic Acid]: 23.7 µM.
